# Laboratory results taken from ChEMBL document CHEMBL4190187, “Discovery of pyrazolopyrimidine derivatives as novel inhibitors of ataxia telangiectasia and rad3 related protein (ATR)” (Bioorg Med Chem Lett, 2017).
# Assays:
# [1] = molecular target: Serine/threonine-protein kinase MRCK beta (Homo sapiens) (UniProt Q9Y5S2); experiment: Inhibition of recombinant human MRCKbeta (1 to 473 residues) at 1 uM using KKRNRTLTV as substrate after 40 mins in presence of [gamma-33P]ATP by scintillation counting method
# [2] = molecular target: TGF-beta receptor type-1 (Homo sapiens) (UniProt P36897); experiment: Inhibition of recombinant activated human TGFBR1 (200 to end residues) at 1 uM using casein as substrate after 40 mins in presence of [gamma-33P]ATP by scintillation counting method
# [3] = organism: Homo sapiens; experiment: Inhibition of recombinant full-length human p110a/recombinant p65a (1 to 571 residues) at 1 uM using phosphatidylinositol 4,5-bisphosphate as substrate after 40 mins in presence of [gamma-33P]ATP by scintillation counting method
# [4] = molecular target: Dual specificity mitogen-activated protein kinase kinase 1 (Homo sapiens) (UniProt Q02750); experiment: Inhibition of recombinant full-length human MEK1 at 1 uM using inactive MAPK2 as substrate after 40 mins in presence of [gamma-33P]ATP by scintillation counting method
# [5] = molecular target: Tyrosine-protein kinase FRK (Homo sapiens) (UniProt P42685); experiment: Inhibition of recombinant human PTK5 (218 to end residues) at 1 uM using GGEEEEYFELVKKKK as substrate after 40 mins in presence of [gamma-33P]ATP by scintillation counting method
# [6] = molecular target: Cyclin-dependent kinase 5/CDK5 activator 1 (Homo sapiens) (UniProt Q00535+Q15078); experiment: Inhibition of recombinant full-length human CDK5/P25 at 1 uM using histone H1 as substrate after 40 mins in presence of [gamma-33P]ATP by scintillation counting method; type: protein-complex assay
# Sequence of Cyclin-dependent kinase 5/CDK5 activator 1 (Homo sapiens) (Q00535 whole entry): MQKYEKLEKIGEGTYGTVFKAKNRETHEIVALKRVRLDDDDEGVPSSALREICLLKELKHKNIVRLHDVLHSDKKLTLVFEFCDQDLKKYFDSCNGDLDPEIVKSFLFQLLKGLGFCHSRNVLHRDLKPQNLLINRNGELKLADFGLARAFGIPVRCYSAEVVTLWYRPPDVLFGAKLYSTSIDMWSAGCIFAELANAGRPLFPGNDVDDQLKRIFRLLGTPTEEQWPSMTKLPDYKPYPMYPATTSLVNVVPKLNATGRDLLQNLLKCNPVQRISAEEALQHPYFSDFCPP
# Sequence of Cyclin-dependent kinase 5/CDK5 activator 1 (Homo sapiens) (Q15078 99-307 partner limits assumed): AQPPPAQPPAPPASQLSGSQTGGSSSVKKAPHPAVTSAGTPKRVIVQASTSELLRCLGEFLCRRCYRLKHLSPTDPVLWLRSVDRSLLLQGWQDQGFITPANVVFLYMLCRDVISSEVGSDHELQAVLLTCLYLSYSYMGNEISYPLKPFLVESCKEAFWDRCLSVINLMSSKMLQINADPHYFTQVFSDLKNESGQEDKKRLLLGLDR
# [7] = molecular target: Phosphatidylinositol 5-phosphate 4-kinase type-2 alpha (Homo sapiens) (UniProt P48426); experiment: Inhibition of recombinant full-length human PIP4K2alpha at 1 uM using phosphatidylinositol 5-phosphate/phosphatidylserine as substrate after 40 mins in presence of [gamma-33P]ATP by scintillation counting method
# Sequence of Phosphatidylinositol 5-phosphate 4-kinase type-2 alpha (Homo sapiens) (P48426 whole entry): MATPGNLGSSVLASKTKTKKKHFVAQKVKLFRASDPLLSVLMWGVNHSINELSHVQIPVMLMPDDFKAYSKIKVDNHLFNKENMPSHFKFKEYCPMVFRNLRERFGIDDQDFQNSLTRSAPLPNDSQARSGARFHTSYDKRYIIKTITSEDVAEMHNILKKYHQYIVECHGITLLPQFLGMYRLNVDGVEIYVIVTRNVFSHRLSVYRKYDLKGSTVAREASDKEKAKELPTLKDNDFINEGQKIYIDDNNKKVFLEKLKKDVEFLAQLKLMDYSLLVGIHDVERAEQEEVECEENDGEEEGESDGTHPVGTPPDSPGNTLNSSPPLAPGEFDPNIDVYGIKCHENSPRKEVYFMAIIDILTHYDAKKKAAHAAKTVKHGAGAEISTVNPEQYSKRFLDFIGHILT
# [8] = molecular target: Serine/threonine-protein kinase Sgk3 (Homo sapiens) (UniProt Q96BR1); experiment: Inhibition of recombinant human SGK3 (119 to end residues) at 1 uM using GRPRTSSFAEGKK as substrate after 40 mins in presence of [gamma-33P]ATP by scintillation counting method
# [9] = molecular target: MAP/microtubule affinity-regulating kinase 3 (Homo sapiens) (UniProt P27448); experiment: Inhibition of recombinant full-length human MARK3 at 1 uM using KKKVSRSGLYRSPSMPENLNRPR as substrate after 40 mins in presence of [gamma-33P]ATP by scintillation counting method
# Sequence of MAP/microtubule affinity-regulating kinase 3 (Homo sapiens) (P27448 whole entry, looked up): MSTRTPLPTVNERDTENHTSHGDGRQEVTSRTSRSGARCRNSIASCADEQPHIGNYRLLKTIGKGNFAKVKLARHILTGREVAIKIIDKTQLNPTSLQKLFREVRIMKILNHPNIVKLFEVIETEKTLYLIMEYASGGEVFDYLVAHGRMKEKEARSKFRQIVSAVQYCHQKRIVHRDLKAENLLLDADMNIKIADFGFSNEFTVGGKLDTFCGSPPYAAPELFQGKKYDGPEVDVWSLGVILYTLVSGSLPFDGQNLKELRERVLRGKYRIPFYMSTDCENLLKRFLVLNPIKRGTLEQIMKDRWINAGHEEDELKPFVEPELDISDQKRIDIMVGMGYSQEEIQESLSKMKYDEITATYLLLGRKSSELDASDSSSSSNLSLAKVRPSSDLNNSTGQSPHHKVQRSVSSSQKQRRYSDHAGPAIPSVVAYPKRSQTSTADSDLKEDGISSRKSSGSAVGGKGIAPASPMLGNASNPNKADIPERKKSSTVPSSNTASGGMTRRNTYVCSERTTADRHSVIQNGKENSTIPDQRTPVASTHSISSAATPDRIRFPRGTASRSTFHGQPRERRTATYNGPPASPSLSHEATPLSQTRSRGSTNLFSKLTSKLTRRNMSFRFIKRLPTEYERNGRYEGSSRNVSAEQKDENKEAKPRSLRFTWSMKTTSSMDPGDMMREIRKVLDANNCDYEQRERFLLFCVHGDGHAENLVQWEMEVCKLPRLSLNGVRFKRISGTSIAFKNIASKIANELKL
# [10] = molecular target: Dual specificity tyrosine-phosphorylation-regulated kinase 3 (Homo sapiens) (UniProt O43781); experiment: Inhibition of recombinant full-length human DYRK3 at 1 uM using RRRFRPASPLRGPPK as substrate after 40 mins in presence of [gamma-33P]ATP by scintillation counting method
# [11] = system: Tyrosine-protein kinase BTK (Homo sapiens), Q06187 [R28H]; experiment: Inhibition of recombinant full-length human BTK R28H mutant at 1 uM using LSNLYHQGKFLQTFCGSPLYRRR as substrate after 40 mins in presence of [gamma-33P]ATP by scintillation counting method
# [12] = molecular target: Tyrosine-protein kinase Fyn (Homo sapiens) (UniProt P06241); experiment: Inhibition of recombinant full-length human Fyn at 1 uM using KVEKIGEGTYGVVYK as substrate after 40 mins in presence of [gamma-33P]ATP by scintillation counting method
# [13] = molecular target: Testis-specific serine/threonine-protein kinase 4 (Homo sapiens) (UniProt Q6SA08); experiment: Inhibition of recombinant full-length human TSSK4 at 1 uM using KKLNRTLSFAEPG as substrate after 40 mins in presence of [gamma-33P]ATP by scintillation counting method
# Sequence of Testis-specific serine/threonine-protein kinase 4 (Homo sapiens) (Q6SA08 whole entry): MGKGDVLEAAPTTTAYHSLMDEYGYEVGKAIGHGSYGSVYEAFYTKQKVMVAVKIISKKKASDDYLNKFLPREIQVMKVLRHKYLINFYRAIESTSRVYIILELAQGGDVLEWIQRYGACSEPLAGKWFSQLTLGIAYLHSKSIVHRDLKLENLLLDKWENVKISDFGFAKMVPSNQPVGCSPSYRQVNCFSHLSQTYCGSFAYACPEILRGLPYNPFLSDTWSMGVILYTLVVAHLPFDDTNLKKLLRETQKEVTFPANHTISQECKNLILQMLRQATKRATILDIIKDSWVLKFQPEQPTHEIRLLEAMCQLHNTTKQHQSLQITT
# [14] = molecular target: Serine/threonine-protein kinase N1 (Homo sapiens) (UniProt Q16512); experiment: Inhibition of recombinant human PRK1 (498 to end residues) at 1 uM using KKLNRTLSFAEPG as substrate after 40 mins in presence of [gamma-33P]ATP by scintillation counting method
# [15] = molecular target: Phosphatidylinositol 4-phosphate 5-kinase type-1 gamma (Homo sapiens) (UniProt O60331); experiment: Inhibition of recombinant full-length human PIP5K1gamma at 1 uM using phosphatidylinositol 4-phosphate/phosphatidylserine as substrate after 40 mins in presence of [gamma-33P]ATP by scintillation counting method
# [16] = system: Saccharomyces cerevisiae; experiment: Inhibition of recombinant Saccharomyces cerevisiae CK1alpha (2 to 298 residues) at 1 uM using KRRRALS(p)VASLPGL as substrate after 40 mins in presence of [gamma-33P]ATP by scintillation counting method
# [17] = molecular target: Serine/threonine-protein kinase TAO1 (Homo sapiens) (UniProt Q7L7X3); experiment: Inhibition of recombinant human TAO1 (1 to 327 residues) at 1 uM using myelin basic protein as substrate after 40 mins in presence of [gamma-33P]ATP by scintillation counting method
# Sequence of Serine/threonine-protein kinase TAO1 (Homo sapiens) (Q7L7X3 whole entry, the tested form may be a part): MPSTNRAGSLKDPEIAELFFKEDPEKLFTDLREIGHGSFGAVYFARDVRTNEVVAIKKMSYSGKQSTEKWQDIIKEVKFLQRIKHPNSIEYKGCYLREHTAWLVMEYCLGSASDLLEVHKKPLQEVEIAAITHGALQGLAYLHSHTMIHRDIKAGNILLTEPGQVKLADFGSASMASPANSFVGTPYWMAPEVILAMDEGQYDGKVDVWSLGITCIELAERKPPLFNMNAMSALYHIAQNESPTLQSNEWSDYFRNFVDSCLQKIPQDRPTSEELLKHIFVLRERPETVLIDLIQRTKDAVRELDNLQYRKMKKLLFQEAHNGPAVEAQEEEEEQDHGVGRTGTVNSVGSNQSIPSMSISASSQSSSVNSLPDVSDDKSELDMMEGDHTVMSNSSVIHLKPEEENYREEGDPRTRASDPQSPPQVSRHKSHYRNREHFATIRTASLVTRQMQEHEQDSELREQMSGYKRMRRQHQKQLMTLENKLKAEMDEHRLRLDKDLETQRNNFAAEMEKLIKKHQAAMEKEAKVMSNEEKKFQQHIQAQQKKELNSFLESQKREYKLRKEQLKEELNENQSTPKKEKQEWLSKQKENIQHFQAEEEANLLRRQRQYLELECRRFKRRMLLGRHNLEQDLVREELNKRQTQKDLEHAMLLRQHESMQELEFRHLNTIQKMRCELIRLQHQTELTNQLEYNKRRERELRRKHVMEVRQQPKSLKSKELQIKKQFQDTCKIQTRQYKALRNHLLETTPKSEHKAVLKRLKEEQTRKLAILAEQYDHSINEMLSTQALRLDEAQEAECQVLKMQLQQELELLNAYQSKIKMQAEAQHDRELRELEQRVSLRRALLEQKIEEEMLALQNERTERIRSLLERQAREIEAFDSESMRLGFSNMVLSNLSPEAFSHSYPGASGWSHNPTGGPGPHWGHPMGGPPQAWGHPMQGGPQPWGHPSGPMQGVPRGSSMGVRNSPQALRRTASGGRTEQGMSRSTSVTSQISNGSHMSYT
# [18] = molecular target: Ephrin type-A receptor 3 (Homo sapiens) (UniProt P29320); experiment: Inhibition of recombinant human EPHA3 (578 to end residues) at 1 uM using poly(Glu,Tyr) 4:1 as substrate after 40 mins in presence of [gamma-33P]ATP by scintillation counting method
# Sequence of Ephrin type-A receptor 3 (Homo sapiens) (P29320 whole entry): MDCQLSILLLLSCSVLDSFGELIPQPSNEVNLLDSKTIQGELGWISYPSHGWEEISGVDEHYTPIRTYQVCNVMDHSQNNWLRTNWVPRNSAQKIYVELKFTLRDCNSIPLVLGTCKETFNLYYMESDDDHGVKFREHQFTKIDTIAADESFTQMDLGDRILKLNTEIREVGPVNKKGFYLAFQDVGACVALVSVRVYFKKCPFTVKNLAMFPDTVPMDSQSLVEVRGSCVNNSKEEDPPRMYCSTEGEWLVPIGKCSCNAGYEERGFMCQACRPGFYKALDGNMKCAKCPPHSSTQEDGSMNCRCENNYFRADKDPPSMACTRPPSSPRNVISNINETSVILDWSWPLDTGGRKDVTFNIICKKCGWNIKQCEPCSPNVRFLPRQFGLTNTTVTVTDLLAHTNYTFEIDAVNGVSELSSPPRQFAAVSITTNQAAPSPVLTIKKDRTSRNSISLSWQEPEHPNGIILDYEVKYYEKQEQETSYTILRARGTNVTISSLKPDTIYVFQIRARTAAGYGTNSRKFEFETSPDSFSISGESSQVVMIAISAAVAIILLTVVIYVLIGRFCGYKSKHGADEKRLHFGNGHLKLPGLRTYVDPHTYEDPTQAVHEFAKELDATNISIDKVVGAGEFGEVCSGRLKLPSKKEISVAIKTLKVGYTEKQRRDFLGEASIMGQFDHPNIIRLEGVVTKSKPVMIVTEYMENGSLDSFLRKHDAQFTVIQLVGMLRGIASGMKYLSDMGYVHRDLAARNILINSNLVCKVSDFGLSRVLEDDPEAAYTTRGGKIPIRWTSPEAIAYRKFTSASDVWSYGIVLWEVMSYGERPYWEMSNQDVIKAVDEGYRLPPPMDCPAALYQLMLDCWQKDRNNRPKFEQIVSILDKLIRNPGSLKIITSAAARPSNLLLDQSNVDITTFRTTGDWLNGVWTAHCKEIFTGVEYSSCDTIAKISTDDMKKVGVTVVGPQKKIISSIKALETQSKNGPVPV
# [19] = molecular target: Mitogen-activated protein kinase 1 (Mus musculus) (UniProt P63085); experiment: Inhibition of recombinant full-length mouse MAPK2 at 1 uM using myelin basic protein as substrate after 40 mins in presence of [gamma-33P]ATP by scintillation counting method
# [20] = molecular target: Serine/threonine-protein kinase ATR (Homo sapiens, UniProt Q13535); experiment: Inhibition of recombinant full-length human ATR at 10 uM using GST-cMyc-p53 as substrate after 40 mins in presence of [gamma-33P]ATP by scintillation counting method
# [21] = molecular target: Insulin-like growth factor 1 receptor (Homo sapiens) (UniProt P08069); experiment: Inhibition of recombinant human activated IGF-1R (959 to end residues) at 1 uM using KKKSPGEYVNIEFG as substrate after 40 mins in presence of [gamma-33P]ATP by scintillation counting method
# [22] = system: Mast/stem cell growth factor receptor Kit (Homo sapiens), P10721 [D816H]; experiment: Inhibition of recombinant human cKit D816H mutant (544 to end residues) at 1 uM using GGMEDIYFEFMGGKKK as substrate after 40 mins in presence of [gamma-33P]ATP by scintillation counting method
# [23] = molecular target: Focal adhesion kinase 1 (Homo sapiens) (UniProt Q05397); experiment: Inhibition of recombinant human FAK (411 to 686 residues) at 1 uM using EEEEYEEEEEEYYIIEEEEEEYEEEEEEYYEEEEEEKKKK as substrate after 40 mins in presence of [gamma-33P]ATP by scintillation counting method
# Sequence of Focal adhesion kinase 1 (Homo sapiens) (Q05397 2-1052 limits assumed): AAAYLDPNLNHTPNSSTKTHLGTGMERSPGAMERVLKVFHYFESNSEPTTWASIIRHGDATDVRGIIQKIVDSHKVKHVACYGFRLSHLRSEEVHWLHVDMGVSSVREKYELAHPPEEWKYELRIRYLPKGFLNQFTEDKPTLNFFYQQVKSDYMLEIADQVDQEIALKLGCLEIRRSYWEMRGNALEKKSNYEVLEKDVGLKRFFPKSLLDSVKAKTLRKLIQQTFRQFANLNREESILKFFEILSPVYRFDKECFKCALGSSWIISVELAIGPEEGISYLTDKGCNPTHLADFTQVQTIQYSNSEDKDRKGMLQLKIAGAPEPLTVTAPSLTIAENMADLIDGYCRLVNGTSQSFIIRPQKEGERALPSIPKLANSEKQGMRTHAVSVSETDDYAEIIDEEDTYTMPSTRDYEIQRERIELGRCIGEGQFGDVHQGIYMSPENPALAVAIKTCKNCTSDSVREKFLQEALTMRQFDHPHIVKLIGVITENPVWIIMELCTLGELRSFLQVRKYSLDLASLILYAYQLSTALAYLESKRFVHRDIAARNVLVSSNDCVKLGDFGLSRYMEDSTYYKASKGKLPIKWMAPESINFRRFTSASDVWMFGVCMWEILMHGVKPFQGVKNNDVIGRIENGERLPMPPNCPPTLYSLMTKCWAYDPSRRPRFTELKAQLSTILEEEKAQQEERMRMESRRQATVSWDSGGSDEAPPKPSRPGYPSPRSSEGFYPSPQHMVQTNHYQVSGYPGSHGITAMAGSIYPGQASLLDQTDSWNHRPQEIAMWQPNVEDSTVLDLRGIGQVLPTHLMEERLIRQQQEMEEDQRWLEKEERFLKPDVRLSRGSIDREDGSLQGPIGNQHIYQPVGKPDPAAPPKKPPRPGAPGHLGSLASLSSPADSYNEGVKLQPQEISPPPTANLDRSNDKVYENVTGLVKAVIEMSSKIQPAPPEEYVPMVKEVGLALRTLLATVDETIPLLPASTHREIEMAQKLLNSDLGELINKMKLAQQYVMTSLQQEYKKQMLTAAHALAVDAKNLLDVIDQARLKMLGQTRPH
# [24] = molecular target: PI3K p110 beta/p85 alpha (Mus musculus) (UniProt P26450+Q8BTI9); experiment: Inhibition of recombinant full-length mouse p110b/p85a at 1 uM using phosphatidylinositol 4,5-bisphosphate as substrate after 40 mins in presence of [gamma-33P]ATP by scintillation counting method; type: protein-complex assay
smiles,measurement,setting,value
CS(=O)(=O)c1ccc(-n2nc(-c3cnc4[nH]ccc4c3)c3c(N)ncnc32)cc1,inhibition,[1],-4%
same,inhibition,[2],76%
same,inhibition,[3],8%
same,inhibition,[4],-1%
same,inhibition,[5],94%
same,inhibition,[6],-1%
same,inhibition,[7],-2%
same,inhibition,[8],12%
same,inhibition,[9],4%
same,inhibition,[10],-10%
same,inhibition,[11],5%
same,inhibition,[12],90%
same,inhibition,[13],-10%
same,inhibition,[14],-1%
same,inhibition,[15],3%
same,inhibition,[16],38%
same,inhibition,[17],7%
same,inhibition,[18],7%
same,inhibition,[19],1%
same,inhibition,[20],106%
same,inhibition,[21],11%
same,inhibition,[22],85%
same,inhibition,[23],3%
same,inhibition,[24],0%
